For assay [1], the target named is T1, Discoidin domain-containing receptor 2 (Homo sapiens) (UniProt Q16832).
T1 sequence (whole entry): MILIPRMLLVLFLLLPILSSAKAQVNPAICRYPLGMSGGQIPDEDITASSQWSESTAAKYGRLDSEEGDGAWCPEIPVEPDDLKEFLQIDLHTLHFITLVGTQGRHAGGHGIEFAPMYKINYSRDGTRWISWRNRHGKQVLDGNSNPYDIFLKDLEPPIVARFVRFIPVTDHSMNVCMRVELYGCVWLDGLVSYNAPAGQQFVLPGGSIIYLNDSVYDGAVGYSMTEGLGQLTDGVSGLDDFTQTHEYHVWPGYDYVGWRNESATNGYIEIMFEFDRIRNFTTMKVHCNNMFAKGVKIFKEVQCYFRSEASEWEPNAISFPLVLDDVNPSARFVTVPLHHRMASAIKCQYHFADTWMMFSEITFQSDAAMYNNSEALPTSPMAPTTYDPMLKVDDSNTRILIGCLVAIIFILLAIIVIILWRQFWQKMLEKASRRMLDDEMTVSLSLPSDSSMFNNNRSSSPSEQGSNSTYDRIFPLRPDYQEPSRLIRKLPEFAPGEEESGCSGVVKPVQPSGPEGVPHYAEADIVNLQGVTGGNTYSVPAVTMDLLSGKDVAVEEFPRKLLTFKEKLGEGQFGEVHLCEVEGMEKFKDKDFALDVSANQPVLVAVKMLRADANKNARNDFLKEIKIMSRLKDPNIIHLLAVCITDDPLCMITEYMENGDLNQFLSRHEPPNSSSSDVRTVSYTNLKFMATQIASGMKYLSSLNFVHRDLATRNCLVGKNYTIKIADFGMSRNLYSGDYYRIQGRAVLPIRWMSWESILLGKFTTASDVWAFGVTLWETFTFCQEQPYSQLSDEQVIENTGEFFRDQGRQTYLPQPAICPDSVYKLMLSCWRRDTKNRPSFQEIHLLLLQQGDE
In words: Inhibition of human recombinant DDR2 at 40 nM in presence of ATP by radiometric assay relative to control.

The target in assay [2] is T2, Dual specificity mitogen-activated protein kinase kinase 6 (Homo sapiens) (UniProt P52564).
T2 sequence (whole entry): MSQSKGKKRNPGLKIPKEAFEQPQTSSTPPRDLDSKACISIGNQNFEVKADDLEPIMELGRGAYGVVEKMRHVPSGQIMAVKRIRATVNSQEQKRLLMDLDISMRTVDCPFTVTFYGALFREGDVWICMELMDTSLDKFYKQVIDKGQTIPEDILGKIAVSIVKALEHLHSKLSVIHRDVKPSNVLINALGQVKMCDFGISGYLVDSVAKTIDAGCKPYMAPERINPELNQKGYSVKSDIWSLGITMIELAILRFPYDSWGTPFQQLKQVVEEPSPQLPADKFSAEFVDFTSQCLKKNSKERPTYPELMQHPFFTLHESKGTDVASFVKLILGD
As to the kind of experiment: Inhibition of human recombinant MAP2K6 at 40 nM in presence of ATP by radiometric assay relative to control.

Assay [3] deals with Receptor tyrosine-protein kinase erbB-4 (Homo sapiens) (UniProt Q15303). As to the kind of experiment: Inhibition of human recombinant ErbB4 at 40 nM related to control ULK1.
For a further assay, the species on record is Homo sapiens. In words: Inhibition of human recombinant KHS1 at 15 nM related to control ULK1.
For assay [4], the target named is Proto-oncogene tyrosine-protein kinase ROS (Homo sapiens) (UniProt P08922). In words: Inhibition of human recombinant ROS at 15 nM related to control ULK1.
Assay [5] deals with T3, Mitogen-activated protein kinase kinase kinase 5 (Homo sapiens) (UniProt Q99683).
T3 sequence (whole entry): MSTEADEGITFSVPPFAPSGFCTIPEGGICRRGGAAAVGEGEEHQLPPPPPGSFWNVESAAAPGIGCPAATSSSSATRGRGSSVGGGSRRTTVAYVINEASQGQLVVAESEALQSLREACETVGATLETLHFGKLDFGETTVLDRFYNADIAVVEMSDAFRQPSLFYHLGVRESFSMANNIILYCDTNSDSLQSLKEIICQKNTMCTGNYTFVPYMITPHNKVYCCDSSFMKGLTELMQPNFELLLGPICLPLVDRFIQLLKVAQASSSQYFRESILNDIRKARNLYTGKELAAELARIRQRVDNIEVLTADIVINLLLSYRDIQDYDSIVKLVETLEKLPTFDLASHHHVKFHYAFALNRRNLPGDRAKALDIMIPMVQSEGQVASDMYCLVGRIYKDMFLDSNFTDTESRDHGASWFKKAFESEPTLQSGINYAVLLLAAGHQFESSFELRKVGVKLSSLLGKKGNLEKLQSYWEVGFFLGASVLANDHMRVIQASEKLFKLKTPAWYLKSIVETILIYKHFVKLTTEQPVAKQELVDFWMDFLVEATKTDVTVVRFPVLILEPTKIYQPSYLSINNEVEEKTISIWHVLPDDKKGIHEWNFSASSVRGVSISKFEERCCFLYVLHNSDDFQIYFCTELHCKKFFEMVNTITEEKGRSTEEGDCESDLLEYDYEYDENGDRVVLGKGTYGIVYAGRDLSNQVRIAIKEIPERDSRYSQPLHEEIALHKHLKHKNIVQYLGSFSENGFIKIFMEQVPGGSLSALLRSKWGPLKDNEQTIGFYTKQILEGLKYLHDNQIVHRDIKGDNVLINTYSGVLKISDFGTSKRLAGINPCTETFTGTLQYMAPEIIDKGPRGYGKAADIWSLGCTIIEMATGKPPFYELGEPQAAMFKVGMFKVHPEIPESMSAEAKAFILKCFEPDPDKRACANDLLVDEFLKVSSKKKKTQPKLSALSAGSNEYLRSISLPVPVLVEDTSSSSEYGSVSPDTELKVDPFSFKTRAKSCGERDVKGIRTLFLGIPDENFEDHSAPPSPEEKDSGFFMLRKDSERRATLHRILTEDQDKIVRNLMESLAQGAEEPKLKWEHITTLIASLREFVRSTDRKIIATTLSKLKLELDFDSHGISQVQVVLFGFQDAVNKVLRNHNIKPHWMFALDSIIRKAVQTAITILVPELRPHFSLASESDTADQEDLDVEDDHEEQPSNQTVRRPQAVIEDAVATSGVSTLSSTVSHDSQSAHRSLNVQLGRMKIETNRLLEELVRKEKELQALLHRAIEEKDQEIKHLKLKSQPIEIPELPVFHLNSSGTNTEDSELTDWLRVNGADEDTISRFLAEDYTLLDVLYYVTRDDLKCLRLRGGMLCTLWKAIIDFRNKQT
As to the kind of experiment: Inhibition of human recombinant MAP3K5 at 15 nM in presence of ATP by radiometric assay relative to control.

Assay [6] has as its target SRSF protein kinase 3 (Homo sapiens) (UniProt Q9UPE1). As to the kind of experiment: Inhibition of human recombinant MSSK1 at 15 nM in presence of ATP by radiometric assay relative to control.

Chain of Proto-oncogene tyrosine-protein kinase ROS (Homo sapiens) (P08922 whole entry): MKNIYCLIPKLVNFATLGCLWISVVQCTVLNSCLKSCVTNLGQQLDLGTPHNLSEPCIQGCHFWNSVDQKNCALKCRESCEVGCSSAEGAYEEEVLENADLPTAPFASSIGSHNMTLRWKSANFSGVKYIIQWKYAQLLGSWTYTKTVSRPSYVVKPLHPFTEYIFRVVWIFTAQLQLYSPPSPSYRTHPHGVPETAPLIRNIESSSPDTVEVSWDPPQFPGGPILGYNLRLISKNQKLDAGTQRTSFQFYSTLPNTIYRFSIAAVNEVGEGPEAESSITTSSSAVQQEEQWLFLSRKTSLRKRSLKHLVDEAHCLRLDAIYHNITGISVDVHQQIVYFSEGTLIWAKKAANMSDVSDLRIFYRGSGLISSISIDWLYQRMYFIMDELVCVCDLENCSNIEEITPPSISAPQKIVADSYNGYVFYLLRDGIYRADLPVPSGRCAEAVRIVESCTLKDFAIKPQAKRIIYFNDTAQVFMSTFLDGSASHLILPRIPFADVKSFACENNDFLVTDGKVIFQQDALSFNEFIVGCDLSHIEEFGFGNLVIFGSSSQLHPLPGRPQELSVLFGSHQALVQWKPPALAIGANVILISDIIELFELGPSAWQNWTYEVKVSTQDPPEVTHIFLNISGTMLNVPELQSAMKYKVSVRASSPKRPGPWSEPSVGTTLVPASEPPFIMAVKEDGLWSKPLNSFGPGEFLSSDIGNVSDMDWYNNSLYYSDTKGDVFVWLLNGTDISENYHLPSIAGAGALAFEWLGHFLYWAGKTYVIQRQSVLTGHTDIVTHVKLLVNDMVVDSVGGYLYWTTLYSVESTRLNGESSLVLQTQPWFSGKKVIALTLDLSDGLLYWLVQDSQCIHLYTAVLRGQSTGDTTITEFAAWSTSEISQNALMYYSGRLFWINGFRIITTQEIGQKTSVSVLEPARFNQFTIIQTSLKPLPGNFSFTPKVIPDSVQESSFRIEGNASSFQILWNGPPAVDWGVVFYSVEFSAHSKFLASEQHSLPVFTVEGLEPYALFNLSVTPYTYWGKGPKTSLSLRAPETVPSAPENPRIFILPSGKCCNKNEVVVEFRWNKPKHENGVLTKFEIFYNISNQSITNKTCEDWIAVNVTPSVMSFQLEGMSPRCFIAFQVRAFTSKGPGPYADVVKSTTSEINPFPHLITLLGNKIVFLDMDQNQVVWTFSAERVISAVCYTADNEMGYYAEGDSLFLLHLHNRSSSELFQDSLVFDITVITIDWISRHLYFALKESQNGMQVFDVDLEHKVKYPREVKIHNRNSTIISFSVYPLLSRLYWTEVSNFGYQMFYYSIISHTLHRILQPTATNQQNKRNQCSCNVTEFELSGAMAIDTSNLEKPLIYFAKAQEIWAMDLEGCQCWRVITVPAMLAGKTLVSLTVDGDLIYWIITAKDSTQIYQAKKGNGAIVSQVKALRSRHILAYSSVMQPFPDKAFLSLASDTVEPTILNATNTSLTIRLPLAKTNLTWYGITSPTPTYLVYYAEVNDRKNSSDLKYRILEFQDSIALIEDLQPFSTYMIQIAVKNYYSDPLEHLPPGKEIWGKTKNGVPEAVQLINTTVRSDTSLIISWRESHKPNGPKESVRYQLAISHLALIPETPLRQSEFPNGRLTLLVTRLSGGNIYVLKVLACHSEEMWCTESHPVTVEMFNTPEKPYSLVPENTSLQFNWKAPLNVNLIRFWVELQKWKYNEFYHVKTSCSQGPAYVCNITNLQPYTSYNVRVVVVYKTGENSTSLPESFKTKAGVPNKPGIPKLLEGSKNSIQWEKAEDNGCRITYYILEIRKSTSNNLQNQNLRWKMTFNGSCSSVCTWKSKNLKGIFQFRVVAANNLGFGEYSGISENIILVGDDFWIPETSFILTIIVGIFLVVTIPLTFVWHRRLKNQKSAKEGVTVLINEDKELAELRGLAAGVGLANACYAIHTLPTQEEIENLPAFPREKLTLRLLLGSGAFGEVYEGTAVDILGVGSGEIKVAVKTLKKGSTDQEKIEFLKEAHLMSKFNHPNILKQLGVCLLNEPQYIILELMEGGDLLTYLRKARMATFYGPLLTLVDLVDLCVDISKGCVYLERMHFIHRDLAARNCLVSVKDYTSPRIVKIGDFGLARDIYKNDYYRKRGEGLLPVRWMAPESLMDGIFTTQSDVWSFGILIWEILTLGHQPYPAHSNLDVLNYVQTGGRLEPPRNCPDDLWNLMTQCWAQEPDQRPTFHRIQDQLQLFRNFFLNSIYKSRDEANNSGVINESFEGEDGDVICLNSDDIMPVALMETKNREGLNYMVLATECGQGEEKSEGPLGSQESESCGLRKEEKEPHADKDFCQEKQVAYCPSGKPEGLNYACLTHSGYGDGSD
Chain of SRSF protein kinase 3 (Homo sapiens) (Q9UPE1 whole entry): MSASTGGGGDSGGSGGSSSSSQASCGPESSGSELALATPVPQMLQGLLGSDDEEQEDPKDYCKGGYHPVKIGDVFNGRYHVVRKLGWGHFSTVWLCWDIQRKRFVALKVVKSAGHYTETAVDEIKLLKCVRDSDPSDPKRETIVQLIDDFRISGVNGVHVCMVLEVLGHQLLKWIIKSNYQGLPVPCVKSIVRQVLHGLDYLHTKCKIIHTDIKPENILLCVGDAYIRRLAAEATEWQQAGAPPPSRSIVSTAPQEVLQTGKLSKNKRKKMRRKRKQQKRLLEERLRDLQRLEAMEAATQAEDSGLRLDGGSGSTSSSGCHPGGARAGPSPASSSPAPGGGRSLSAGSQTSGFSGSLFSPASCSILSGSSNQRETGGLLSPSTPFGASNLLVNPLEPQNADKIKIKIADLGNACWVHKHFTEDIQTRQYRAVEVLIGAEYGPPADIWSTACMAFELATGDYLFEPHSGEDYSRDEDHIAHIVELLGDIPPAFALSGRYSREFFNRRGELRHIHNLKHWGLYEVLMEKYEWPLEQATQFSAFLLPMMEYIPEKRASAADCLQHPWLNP
Chain of Receptor tyrosine-protein kinase erbB-4 (Homo sapiens) (Q15303 whole entry): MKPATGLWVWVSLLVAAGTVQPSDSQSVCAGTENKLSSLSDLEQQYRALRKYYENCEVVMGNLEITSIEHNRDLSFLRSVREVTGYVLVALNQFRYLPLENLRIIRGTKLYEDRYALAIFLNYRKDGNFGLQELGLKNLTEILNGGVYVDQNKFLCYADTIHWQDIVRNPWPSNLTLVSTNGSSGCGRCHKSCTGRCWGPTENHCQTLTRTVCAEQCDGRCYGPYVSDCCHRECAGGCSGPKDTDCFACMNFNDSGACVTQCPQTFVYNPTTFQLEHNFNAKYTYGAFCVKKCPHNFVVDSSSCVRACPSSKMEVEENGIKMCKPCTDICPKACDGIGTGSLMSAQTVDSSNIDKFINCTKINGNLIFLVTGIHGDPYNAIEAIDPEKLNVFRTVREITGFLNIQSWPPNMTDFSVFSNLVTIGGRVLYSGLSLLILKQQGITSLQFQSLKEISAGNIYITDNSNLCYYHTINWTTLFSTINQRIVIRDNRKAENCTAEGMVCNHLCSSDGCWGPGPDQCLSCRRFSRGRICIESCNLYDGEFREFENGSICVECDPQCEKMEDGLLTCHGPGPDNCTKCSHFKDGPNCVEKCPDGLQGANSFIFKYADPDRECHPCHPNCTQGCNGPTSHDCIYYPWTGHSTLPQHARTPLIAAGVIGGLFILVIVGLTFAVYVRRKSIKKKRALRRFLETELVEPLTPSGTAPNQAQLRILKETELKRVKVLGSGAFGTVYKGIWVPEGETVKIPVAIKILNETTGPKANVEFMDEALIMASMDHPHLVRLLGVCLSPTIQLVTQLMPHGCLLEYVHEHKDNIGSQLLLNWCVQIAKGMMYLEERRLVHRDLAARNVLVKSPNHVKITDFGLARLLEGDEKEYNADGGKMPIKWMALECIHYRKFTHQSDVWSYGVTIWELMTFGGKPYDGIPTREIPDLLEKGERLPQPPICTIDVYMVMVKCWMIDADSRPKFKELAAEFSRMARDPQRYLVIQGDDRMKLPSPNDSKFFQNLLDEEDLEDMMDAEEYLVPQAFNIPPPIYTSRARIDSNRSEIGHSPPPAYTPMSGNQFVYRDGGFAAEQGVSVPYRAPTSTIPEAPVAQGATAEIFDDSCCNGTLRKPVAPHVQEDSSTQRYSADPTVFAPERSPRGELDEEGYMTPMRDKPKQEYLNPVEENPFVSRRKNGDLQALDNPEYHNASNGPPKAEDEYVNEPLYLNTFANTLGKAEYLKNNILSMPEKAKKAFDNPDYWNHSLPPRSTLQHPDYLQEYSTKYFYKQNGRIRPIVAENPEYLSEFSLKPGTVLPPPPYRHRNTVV

As for `O=C(N[C@@H](C1CC1)C(F)(F)F)c1cc(-c2cnn3cc(-c4ccc(F)cc4)cnc23)cs1`, the inhibition in assay [1] and in assay [2] was 0% throughout. In addition, the fold change (FC) in assay [3] was 0.

Take `CC(C)[C@H](NC(=O)c1cc(-c2cnn3cc(-c4ccc(OCCN5CCCCC5)cc4)cnc23)cs1)C(F)(F)F`: the fold change (FC) stood at 0.16 in the assay filed under Homo sapiens and 0 in assay [4]. The inhibition in assay [5] and in assay [6] was 0% each time.

Source of the values: ChEMBL document CHEMBL5653631, “A Potent and Selective ULK1 Inhibitor Suppresses Autophagy and Sensitizes Cancer Cells to Nutrient Stress” (iScience, 2018).
